# Laboratory results taken from article PMC5630639 (Scientific Reports, 2017).
# Key:
# [1] = tested on: MGC-803 cells; experiment: CCK-8 proliferation assay, MGC-803; type: cell-based, human; settings: for IC50: 48 h, CCK-8, mean ± SD
# Protocol: (§1) All synthesized β-lactam-azide derivatives were evaluated for their antiproliferative activity against three cancer cell lines (MGC-803, MCF-7, A549) using CCK-8 proliferation assay. The well-known anticancer drug CA-4P was used as a control[36],[37].
# (§2) MGC-803 cell line was obtained from the Chinese Academy of Sciences (Shanghai, China). MCF-7 and A549 were from the National Cell Center, China. MGC-803 cells were cultured in DMEM culture medium (DMEM, Biological Industries, Kibbutz Beit Haemek, Israel). A549 and MCF-7 cells were cultured in 1640 medium (1640, Biological Industries, Kibbutz Beit Haemek, Israel). All medium were supplemented with 10% fetal bovine serum, 100 U/ml penicillin (North China Pharmaceutical group Co.), and 100 µg/ml streptomycin (North China Pharmaceutical group Co.). All cells were cultured at 37 °C in a humidified incubator containing 5% CO2.
# (§3) Synthesized analogues used in the study were dissolved in 100% cell culture grade DMSO and the final concentration of DMSO as <0.1% for testing on cancer cell lines. Cytotoxicity assays were performed on the human gastric carcinoma cell line MGC-803, the human mammary carcinoma cell line MCF-7, the human lung carcinoma cell line A549. Cells (3500–5000/well) were seeded into 96-well plates in 100 µL of culture medium. The cells were treated in triplicate with a gradient concentration of testing compounds and incubated at 37 °C, 5% CO2 for 48 h. For all cell lines, CCK-8 assay was performed to measure cytotoxic effects. The absorbance was measured using a microplate reader (BioTek Instrument, Inc. Vermont, USA) with a test wavelength of 450 nm. The absorbance levels were corrected against untreated control absorbance values. All experiments were performed in triplicate and SPSS17.0 was used for data analysis to obtain IC50 values.
# [2] = tested on: MCF-7 cells; experiment: CCK-8 proliferation assay, MCF-7; type: cell-based, human; settings: 48 h, CCK-8, mean ± SD
# Protocol: as §1, §2, §3
# [3] = tested on: A549 cells; experiment: CCK-8 proliferation assay, A549; type: cell-based, human; settings: 48 h, CCK-8, mean ± SD
# Protocol: as §1, §2, §3
# [4] = tested on: MGC-803 xenograft; experiment: MGC-803 xenograft model in nude mice; type: in vivo, BALB/c nude mice; settings: 100 mg/kg, intragastric daily
# Protocol: To evaluate the potential antitumor effects of 28 in vivo, a MGC-803 xenograft model were established in nude mice by subcutaneously injecting MGC-803 cells at its logarithmic phase into the right flank of mice[56]. Tumor bearing mice were then randomly assigned to five groups (control, 100 mg/kg CA-4P, 25, 50, 100 mg/kg 28) with 10 mice per group. Then, the mice were gavaged with saline (control), CA-4P and different concentrations of 28 in saline solution daily. […] At the end of the observation period, mean tumor volumes of control, CA-4P, 25, 50, and 100 mg/kg 28 groups were 1665.98 ± 568.36 mm^3, 642.61 ± 449.92 mm^3, 788.18 ± 435.92 mm^3, 1125.93 ± 668.25 mm^3 and 1273.88 ± 513.69 mm^3, respectively. […] The antitumor activity of 28 in vivo was similar to that of CA-4P.
# Animals were treated according to protocols established by the ethics committee of Zhengzhou University and the in vivo experiments were carried out in accordance with the approved guidelines and approved by the ethics committee of Zhengzhou University. BALB/c nude mice (18 g, aged 4–5 weeks) were purchased from Human SJA Laboratory Animal Co. Ltd. (Hunan, China). Mice were subcutaneously implanted with MGC-803 cells (5 × 10^6 cells per mouse) on the right flank of nude mice. Once tumor volumes reached to approximately 100 mm^3, the mice were randomly divided into corresponding saline, CA-4P (100 mg/kg), 28 (100 mg/kg), 28 (50 mg/kg) and 28 (25 mg/kg) treatment groups (n = 10 mice for each group). The treatment groups received intragastric administration of 28 and CA-4P per day for a period of 21 days. Then, the mice were euthanized and tumors isolated and weighed. Their body weights were measured and tumor sizes determined by vernier caliper measurement every other day.
"IC50 ([1]; Homo sapiens, MGC-803) [µM]","IC50 ([2]; Homo sapiens, MCF7) [µM]","IC50 ([3]; Homo sapiens, A549) [µM]",Compound,also measured
0.84 ± 0.63,4 ± 0.922,5.76 ± 0.887,"COc1cc(N2C(=O)[C@H](c3ccc(F)cc3)[C@H]2c2cccc(N=[N+]=[N-])c2)cc(OC)c1OC (relative stereo) [Compound 24, trans-4-(3-azidophenyl)-3-(4-fluorophenyl)-1-(3,4,5-trimethoxyphenyl)azetidin-2-one]",–
0.59 ± 0.014,1.07 ± 0.024,3.22 ± 0.349,"COc1ccc([C@H]2C(=O)N(c3cc(OC)c(OC)c(OC)c3)[C@@H]2c2ccc(N=[N+]=[N-])cc2)cc1 (relative stereo) [Compound 17, trans-4-(4-azidophenyl)-3-(4-methoxyphenyl)-1-(3,4,5-trimethoxyphenyl)azetidin-2-one]",–
1.4 ± 0.127,2.88 ± 0.494,18.1 ± 1.71,"COc1cccc([C@H]2C(=O)N(c3cc(OC)c(OC)c(OC)c3)[C@@H]2c2cccc(N=[N+]=[N-])c2)c1 (relative stereo) [Compound 23, trans-4-(3-azidophenyl)-3-(3-methoxyphenyl)-1-(3,4,5-trimethoxyphenyl)azetidin-2-one]",–
> 20,> 20,> 20,"COc1cc(N2C(=O)[C@@](c3ccccc3)(S(=O)(=O)C(F)(F)F)[C@H]2c2ccc(N=[N+]=[N-])cc2)cc(OC)c1OC [Compound 35, 4-(4-azidophenyl)-3-phenyl-3-((trifluoromethyl)sulfonyl)-1-(3,4,5-trimethoxyphenyl)azetidin-2-one]",–
0.171 ± 0.051,0.338 ± 0.004,1.74 ± 0.145,"COc1cc(N2C(=O)[C@H](c3ccccc3)[C@H]2c2ccc(N=[N+]=[N-])cc2)cc(OC)c1OC (relative stereo) [Compound 18, trans-4-(4-azidophenyl)-3-phenyl-1-(3,4,5-trimethoxyphenyl)azetidin-2-one]",melting point: 66 to 68 °C
> 20,> 20,> 20,"COc1ccc([C@H]2C(=O)N(c3ccc(OC)c(OC)c3)[C@@H]2c2ccc(N=[N+]=[N-])cc2)cc1 [Compound 13, trans-4-(4-azidophenyl)-1-(3,4-dimethoxyphenyl)-3-(4-methoxyphenyl)azetidin-2-one]",–
> 20,> 20,> 20,"COc1ccc([C@H]2C(=O)N(c3cc(OC)c(OC)c(OC)c3)[C@@H]2c2ccc(-n3cc(CSC(=S)N4CCCC4)nn3)cc2)cc1 (relative stereo) [Compound 31, (1-(4-(trans-3-(4-methoxyphenyl)-4-oxo-1-(3,4,5-trimethoxyphenyl)azetidin-2-yl)phenyl)-1H-1,2,3-triazol-4-yl)methylpyrrolidine-1-carbodithioate]",–
> 20,> 20,> 20,"COc1ccc([C@H]2C(=O)N(c3ccc(OC)cc3OC)[C@@H]2c2cccc(N=[N+]=[N-])c2)cc1 (relative stereo) [Compound 21, trans-4-(3-azidophenyl)-1-(2,4-dimethoxyphenyl)-3-(4-methoxyphenyl)azetidin-2-one]",–
1.4 ± 0.133,2.88 ± 0.489,18.1 ± 2.31,"COc1cccc([C@H]2C(=O)N(c3cc(OC)c(OC)c(OC)c3)[C@@H]2c2ccc(N=[N+]=[N-])cc2)c1 (relative stereo) [Compound 19, trans-4-(4-azidophenyl)-3-(3-methoxyphenyl)-1-(3,4,5-trimethoxyphenyl)azetidin-2-one]",activity loss against the growth of MGC-803 cells ([1]; hydrogen atom (18) replaced with methoxy group (19)): over 8 fold

# Continued, compound first:
Compound,"IC50 ([1]; Homo sapiens, MGC-803) [µM]","IC50 ([2]; Homo sapiens, MCF7) [µM]","IC50 ([3]; Homo sapiens, A549) [µM]",also measured
"trans-4-phenyl-3-(thiophen-2-yl)-1-(3,4,5-trimethoxyphenyl)azetidin-2-one [Compound 27]",–,–,–,IC50 [1]: > 20 µM; IC50 [2]: > 20 µM; IC50 [3]: > 20 µM
"COc1ccc(N2C(=O)[C@H](c3ccc(F)cc3)[C@H]2c2cccc(N=[N+]=[N-])c2)c(OC)c1 (relative stereo) [Compound 22, trans-4-(3-azidophenyl)-1-(2,4-dimethoxyphenyl)-3-(4-fluorophenyl)azetidin-2-one]",> 20,> 20,> 20,–
"CCN1CCN(C(=S)SCc2cn(-c3ccc([C@@H]4[C@@H](c5ccccc5)C(=O)N4c4cc(OC)c(OC)c(OC)c4)cc3)nn2)CC1 (relative stereo) [Compound 32, (1-(4-(trans-4-oxo-3-phenyl-1-(3,4,5-trimethoxyphenyl)azetidin-2-yl)phenyl)-1H-1,2,3-triazol-4-yl)methyl-4-ethylpiperazine-1-carbodithioate]",> 20,> 20,> 20,–
"COc1ccc(N2C(=O)[C@@H](c3ccccc3)[C@@H]2c2ccc(N=[N+]=[N-])cc2)cc1 (relative stereo) [Compound 15, trans-4-(4-azidophenyl)-1-(4-methoxyphenyl)-3-phenylazetidin-2-one]",> 20,> 20,> 20,melting point: 114 to 116 °C
"COc1ccc(N2C(=O)[C@H](c3ccc(Cl)cc3)[C@H]2c2ccc(N=[N+]=[N-])cc2)cc1 (relative stereo) [Compound 14, trans-4-(4-azidophenyl)-3-(4-chlorophenyl)-1-(4-methoxyphenyl)azetidin-2-one]",> 20,> 20,> 20,melting point: 147 to 149 °C
"COc1cc(N2C(=O)[C@@](c3ccccc3)(S(=O)(=O)C(F)(F)F)[C@H]2c2cccc(N=[N+]=[N-])c2)cc(OC)c1OC [Compound 36, 4-(3-azidophenyl)-3-phenyl-3-((trifluoromethyl)sulfonyl)-1-(3,4,5-trimethoxyphenyl)azetidin-2-one]",> 20,> 20,> 20,–
"COc1cc(N2C(=O)[C@@H](c3ccccc3)[C@@H]2c2cccc(N=[N+]=[N-])c2)cc(OC)c1OC (relative stereo) [Compound 25, trans-4-(3-azidophenyl)-3-phenyl-1-(3,4,5-trimethoxyphenyl)azetidin-2-one]",0.392 ± 0.028,0.805 ± 0.176,2.13 ± 0.39,melting point: 128 to 129 °C
"COc1cccc([C@H]2C(=O)N(c3ccc(OC)c(OC)c3)[C@@H]2c2ccc(N=[N+]=[N-])cc2)c1 (relative stereo) [Compound 16, trans-4-(4-azidophenyl)-1-(3,4-dimethoxyphenyl)-3-(3-methoxyphenyl)azetidin-2-one]",> 20,> 20,> 20,–
"COc1ccc(/C=C\c2cc(OC)c(OC)c(OC)c2)cc1OP(=O)(O)O [CA-4P, reference compound]",–,–,–,IC50 [1]: 0.015 ± 0.001 µM; IC50 [2]: 0.023 ± 0.002 µM; inhibitory rate (tumor weight) ([4]; 21 days): 63.27%; average tumor weight ([4]; 21 days (control 1.23 ± 0.28)): 0.45 ± 0.22 g; mean tumor volume at end of observation period ([4]; 21 days (control 1665.98 ± 568.36)): 642.61 ± 449.92 mm^3; IC50 [3]: 0.033 ± 0.007 µM
"COc1ccc(N2C(=O)[C@H](c3ccccc3)[C@H]2c2ccc(N=[N+]=[N-])cc2)cc1OC (relative stereo) [Compound 12, trans-4-(4-azidophenyl)-1-(3,4-dimethoxyphenyl)-3-phenylazetidin-2-one]",> 20,> 20,> 20,–
